In publication PMC10303363, “Synthesis and Preclinical Evaluation of Novel ^68Ga-Labeled (R)-Pyrrolidin-2-yl-boronic Acid-Based PET Tracers for Fibroblast Activation Protein-Targeted Cancer Imaging” (Pharmaceuticals, 2023):
“And” between values parts separate entries of the source, which are not always exact repeats. Equal values may be shown once.

Tests used:
[1] = tested on: HEK293T:hFAP tumor xenograft; experiment: PET/CT imaging; type: in vivo, mice; details: HEK293T:hFAP tumor xenograft, 1 h pi, unblocked
Method: (§1) Imaging and biodistribution studies were performed using immunodeficient male NRG (NOD.Cg-Rag1tm1Mom Il2rgtm1Wjl/SzJ) mice following previously reported procedures. All experiments were conducted according to the guidelines established by the Canadian Council on Animal Care and approved by Animal Ethics Committee of the University of British Columbia. The mice were subcutaneously inoculated with 7.5 × 10^6 HEK293T:hFAP cells in the left dorsal flank. When the tumors grew to 6–8 mm in diameter, the mice were used for PET/CT imaging and biodistribution studies.
The PET/CT imaging experiments were carried out using a Siemens Inveon micro PET/CT scanner (Knoxville, TN, USA). Tumor-bearing mice were injected with ~4 to 6 MBq of ^68Ga-labeled tracer through a lateral caudal tail vein under 2.5% isoflurane in oxygen anesthesia, followed by recovery and free roaming in their cage during the uptake period. A 10 min localization CT scan was acquired using 3 overlapping positions to cover the entire mouse. The CT scan was used for the attenuation and scatter correction, and anatomical localization. A list mode acquisition was then performed for 15 min at 1 h pi with the mouse under isoflurane sedation. The images were reconstructed using 3D OSEM/MAP iterative methods.
(§2) For blocking studies, HEK293T:hFAP tumor-bearing mice were co-injected [^68Ga]Ga-SB04028 with an excess of FAPI-04 (0.5 mg/mouse) as a competitor. Imaging and biodistribution studies were performed at 1 h pi similar to the unblocked mice.

[2] = tested on: HEK293T:hFAP tumor-bearing mice; experiment: Ex vivo biodistribution study; type: in vivo; details: 1 h pi; for Adrenal Glands uptake / Blood uptake / Bone uptake / Brain uptake / Fat uptake / Heart uptake / Kidneys uptake / Large Intestines uptake / Liver uptake / Lungs uptake / Muscle uptake / Pancreas uptake / Small Intestine uptake / Spleen uptake / Stomach uptake / Testes uptake / Thyroid uptake / Tumor uptake / Tumor/Blood uptake ratio / Tumor/Bone uptake ratio / Tumor/Kidney uptake ratio / Tumor/Muscle uptake ratio: HEK293T:hFAP tumor-bearing male NRG mice, unblocked, n = 4
Method: as §1
For the biodistribution studies, the mice were injected with ~1–2 MBq of the ^68Ga-labeled tracer, using the exact procedures as described above. At 1 h pi, the mice were euthanized by CO2 inhalation. Blood was withdrawn by a cardiac puncture, and the organs/tissues of interest were collected, weighed and counted using a Perkin Elmer (Waltham, MA, USA) Wizard2 2480 automatic gamma counter. The uptake values in percent of injected dose per gram of tissues (%ID/g) for the different tracers were calculated.
as §2

[3] = In vivo stability study (radio-HPLC of plasma and urine); parameters: species or system mice; details: 15 min pi
Method: In vivo stability studies were performed using healthy (non-tumor-bearing) male NRG mice following previously reported procedures. Briefly, [^68Ga]Ga-SB02055 (6.32 ± 0.16 MBq) and [^68Ga]Ga-SB04028 (9.90 ± 0.26 MBq) were injected via the lateral caudal vein into the mice (n = 3). At 15 min pi, the mice were sedated and euthanized, and urine and blood were collected. The blood was processed to obtain plasma by adding 0.5 mL of acetonitrile to 0.5–0.8 mL of whole blood, then vortexing and centrifuging the resulting mixture on a benchtop mini-centrifuge (Fisherbrand™ Mini-Centrifuge 100–240 V, 50/60 Hz Universal Plug) for 20 min. The supernatant was collected and filtered to give the blood plasma. The plasma and urine samples were analyzed via radio-HPLC by using the same conditions as those used for quality control of these ^68Ga-labeled radioligands.

[4] = parameters: method as in PMID 35631416; details: patients, after administrating 740 MBq; cited from earlier work
[5] = tested on: FAP-positive SK-Mel-187 melanoma xenograft; parameters: method as in PMID 25633335; details: in vitro; cited from earlier work
[6] = tested on: HEK-mFAP murine tumor model; parameters: method as in doi:10.1158/1538-7445.AM2022-3303; details: single dose; cited from earlier work

For O=C([O-])CN1CCN(CC(=O)[O-])CCN(CC(=O)N2CCN(CCCOc3ccc4nccc(C(=O)NCC(=O)N5CCCC5B(O)O)c4c3)CC2)CCN(CC(=O)[O-])CC1.[68Ga+3] (centres unmarked) [[^68Ga]Ga-SB02055], the “tumor on PET/CT image” value [1] was “negligible”, the “Adrenal Glands uptake” value [2] was 1.17 ± 1.13 %ID/g and the Blood uptake [2] was 3.13 ± 1.25 %ID/g. The Bone uptake [2] was 1.14 ± 0.37 %ID/g, the Brain uptake [2] was 0.05 ± 0.02 %ID/g and the Fat uptake [2] was 0.16 ± 0.05 %ID/g. The Heart uptake [2] was 1.23 ± 0.48 %ID/g, the Kidneys uptake [2] was 1.74 ± 0.95 %ID/g and the “Large Intestines uptake” value [2] was 0.56 ± 0.24 %ID/g. For the same molecule, the Liver uptake [2] was 0.94 ± 0.27 %ID/g, the Lungs uptake [2] was 1.20 ± 0.35 %ID/g and the Muscle uptake [2] was 0.63 ± 0.20 %ID/g. The Pancreas uptake [2] was 2.07 ± 0.83 %ID/g, the “Small Intestine uptake” value [2] was 0.80 ± 0.29 %ID/g and the Spleen uptake [2] was 0.85 ± 0.27 %ID/g. For the same molecule, the Stomach uptake [2] was 0.53 ± 0.36 %ID/g, the Testes uptake [2] was 0.26 ± 0.10 %ID/g and the Thyroid uptake [2] was 1.49 ± 0.47 %ID/g. The Tumor uptake [2] was 1.08 ± 0.37 %ID/g, the Tumor/Blood uptake ratio [2] was 0.35 ± 0.03 and the Tumor/Bone uptake ratio [2] was 0.95 ± 0.06. The Tumor/Kidney uptake ratio [2] was 0.67 ± 0.15, the Tumor/Muscle uptake ratio [2] was 1.72 ± 0.19 and the “fold lower tumor uptake than [68Ga]Ga-PNT6555” value ([2]; HEK293T:hFAP tumor-bearing mice) was ~ 6 fold. For the same molecule, the “fraction of tracer remaining intact in plasma” value ([3]; male NRG mice, n = 3) was “no intact”, the “fraction of tracer remaining intact in urine” value ([3]; male NRG mice, n = 3) was 93.5 ± 0.91% and > 93% and the “plasma fraction of unidentified highly hydrophilic 68Ga-labeled species” value ([3]; mouse plasma) was over 99%.
In the case of “[^99mTc]Tc-HYNIC-D-Ala-boroPro [[^99mTc]Tc-iFAP]”, the effective dose [4] is given as 2.3 ± 0.4 mSv and the “mean radiation equivalent dose for the kidney” value [4] is given as 5.2 ± 0.8 mSv.
For O=C(NCC(=O)N1CCC[C@H]1B(O)O)c1ccc([125I])cc1 [[^125I]MIP-1232], the “accumulation in FAP-positive SK-Mel-187 melanoma xenograft” value [5] is given as “strongly accumulate”.
For CC(NC(=O)c1ccc(CNC(=O)CN2CCN(CC(=O)[O-])CCN(CC(=O)[O-])CCN(CC(=O)[O-])CC2)cc1)C(=O)N1CCCC1B(O)O.[225Ac+3] (centres unmarked) [[^225Ac]Ac-PNT6555], the anti-tumor efficacy [6] is given as “dose-dependent anti-tumor efficacy”.
With CC(NC(=O)c1ccc(CNC(=O)CN2CCN(CC(=O)[O-])CCN(CC(=O)[O-])CCN(CC(=O)[O-])CC2)cc1)C(=O)N1CCCC1B(O)O.[68Ga+3] (centres unmarked) [[^68Ga]Ga-PNT6555, reference compound] the “Adrenal Glands uptake” value [2] was 0.56 ± 0.89 %ID/g, the Blood uptake [2] was 0.60 ± 0.04 %ID/g and the Bone uptake [2] was 0.45 ± 0.12 %ID/g. It also gave a Brain uptake [2] of 0.02 ± 0.00 %ID/g, a Fat uptake [2] of 0.06 ± 0.02 %ID/g and a Heart uptake [2] of 0.17 ± 0.01 %ID/g. The Kidneys uptake [2] was 2.29 ± 0.43 %ID/g, the “Large Intestines uptake” value [2] was 0.11 ± 0.03 %ID/g and the Liver uptake [2] was 1.49 ± 0.11 %ID/g. It also gave a Lungs uptake [2] of 0.42 ± 0.04 %ID/g, a Muscle uptake [2] of 0.12 ± 0.02 %ID/g and a Pancreas uptake [2] of 0.13 ± 0.02 %ID/g. The “Small Intestine uptake” value [2] was 0.64 ± 0.10 %ID/g, the Spleen uptake [2] was 0.21 ± 0.08 %ID/g and the Stomach uptake [2] was 0.11 ± 0.05 %ID/g. For the same molecule, the Testes uptake [2] was 0.16 ± 0.03 %ID/g, the Thyroid uptake [2] was 0.26 ± 0.02 %ID/g and the Tumor uptake [2] was 6.38 ± 0.45 %ID/g. The Tumor/Blood uptake ratio [2] was 10.7 ± 1.29, the Tumor/Bone uptake ratio [2] was 14.9 ± 3.34 and the Tumor/Kidney uptake ratio [2] was 2.87 ± 0.59. The Tumor/Muscle uptake ratio [2] was 52.6 ± 5.86.
